Target: purified human recombinant GK (Homo sapiens (Human), UniProt P35557)
Experiment: Glucokinase activity assay (coupled enzymatic, G6PD/NADH absorbance at 340 nm)
Type: biochemical
Details: for EC50: EC50 of % change in S0.5 of glucokinase for glucose, sigmoidal fit, read-out: EC50 (with respect to % ΔS0.5); for Emax: read-out: % Emax (with respect to % ΔS0.5)
Source text: The glucokinase (GK) assay is a coupled enzymatic assay. GK catalyzes the first step of glycolysis, the conversion of glucose to glucose-6-phosphate (G6P) in the presence of ATP. G6P in turn is converted by glucose-6-phosphate dehydrogenase (G6PD) to 6-phosphogluconate, a process that requires NAD, resulting in NADH formation. Since the GK-catalyzed step is the rate-limiting step of this coupled enzymatic process, the rate of accumulation of 6-phosphogluconate and NADH is directly proportional to the rate of glucose phosphorylation by GK. The rate of the GK-catalyzed reaction can therefore be measured by monitoring the increase in NADH absorbance at 340 nm.
The assay is carried out according to the protocol outlined in Hariharan et al (1997), Diabetes 46: 11-16. Briefly, the test compounds are incubated in a reaction mix containing 25 mM HEPES (pH 7.2), 10 mM MgCl2, 100 mM KCl, 5 mM ATP, 2 mM DTT, 0.5 mM NAD, 1 U/mL Leuconostoc mesenteroides G6PD, 0.3 U/mL of purified human recombinant GK, and different concentrations of glucose. Enzymatic activity is calculated from the initial reaction velocity, measured from the change in NADH absorbance as a function of time.
Compounds described in formula (I), in concentration ranges from 1.0 nM to 500 μM, are tested in the purified human recombinant glucokinase assay described above.
A compound is considered to be a glucokinase activator if it, in its testable range of concentrations, yields a higher rate of glucose phosphorylation than in its absence at a particular glucose concentration, for example at 5 mM glucose.
Compounds of general formula (I) are tested in the in vitro GK enzymatic assay to monitor dose-dependent effect on glucokinase activation (in kinetic mode), as described above, at various glucose concentrations. The S0.5 of glucokinase for glucose at different concentration of each compound of interest is calculated from the following modified version of the Michaelis-Menten equation, V=Vmax [S]^n/(S0.5^n+[S]^n), where [S] is the glucose concentration and n is the Hill coefficient (taken as 1.7 to account for the sigoidal kinetics of glucokinase with respect to glucose). The S0.5 is plotted against the log of the compound concentration. The change in the S0.5 of glucokinase (ΔS0.5) for glucose is calculated by subtracting the S0.5 at each concentration of the compound from the S0.5 in the vehicle control. The ΔS0.5 is then normalized to a percent scale, where the S0.5 in the vehicle control is set to 0% and 0 mM glucose is set to 100%. The % ΔS0.5 is then plotted against the log of the compound concentration. The EC50 and Emax of % change in S0.5 is obtained from the sigoidal fit of the data. Detailed protocol has been described in our copending application no. 409/CHE/2007 which is incorporated herein by reference. Characterization data of some representative glucokinase activators of the present disclosure, which are illustrative but not limiting, are given in table I below.

[1] = Emax of % change in S0.5 of glucokinase for glucose, vehicle S0.5 = 0%, 0 mM glucose = 100%

Chain of purified human recombinant GK (P35557 whole entry): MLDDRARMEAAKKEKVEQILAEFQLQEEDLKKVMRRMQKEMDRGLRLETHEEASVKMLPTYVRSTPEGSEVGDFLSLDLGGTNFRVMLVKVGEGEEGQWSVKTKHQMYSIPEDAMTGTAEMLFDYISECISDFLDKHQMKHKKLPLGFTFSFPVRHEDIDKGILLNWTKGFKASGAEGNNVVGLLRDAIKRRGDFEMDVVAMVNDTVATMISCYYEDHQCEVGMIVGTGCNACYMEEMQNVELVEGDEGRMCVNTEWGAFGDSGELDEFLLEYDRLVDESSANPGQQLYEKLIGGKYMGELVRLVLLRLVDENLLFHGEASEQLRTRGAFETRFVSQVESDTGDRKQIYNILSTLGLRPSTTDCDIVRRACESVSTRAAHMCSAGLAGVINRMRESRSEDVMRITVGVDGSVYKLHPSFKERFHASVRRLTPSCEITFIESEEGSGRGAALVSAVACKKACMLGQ

Cc1ccc(Oc2cnc(NC(=O)C(O[C@@H]3CCOC3)c3ccc(S(=O)(=O)C4CC4)cc3)s2)cc1C(=O)O (single isomer, unassigned; (+)) [Example G11A]
EC50: 570 nM
Emax [1]: 92%

O=C(Nc1ncc(-n2cccn2)s1)C(Oc1ccc(F)cc1F)c1ccc(S(=O)(=O)C2CC2)cc1 (single isomer, unassigned; (+)) [Example G4A, (+)2-(4-cyclopropylsulfonylphenyl)-2-(2,4-difluorophenoxy)-N-(5-pyrazol-1-ylthiazol-2-yl)acetamide]
EC50: 260 nM
Emax [1]: 91%

O=C(NC1CC1)c1ccc(Oc2cnc(NC(=O)C(OC3CCOCC3)c3ccc(S(=O)(=O)C4CC4)cc3)s2)cc1 (stereo not shown) [Example C3, N-Cyclopropyl-4-[2-[[2-(4-cyclopropylsulfonylphenyl)-2-tetrahydropyran-4-yloxy-acetyl]amino]thiazol-5-yl]oxy-benzamide]
EC50: 130 nM
Emax [1]: 94%

O=C(Nc1nc2ccc(C(O)CO)nc2s1)C(OC1CCOCC1)c1ccc(S(=O)(=O)C2CC2)cc1 (stereo not shown) [Example E2, 2-(4-Cyclopropanesulfonyl-phenyl)-N-[5-(1,2-dihydroxy-ethyl)-thiazolo[5,4-b]pyridin-2-yl]-2-(tetrahydro-pyran-4-yloxy)-acetamide]
EC50: 1500 nM
Emax [1]: 93%

O=C(O)c1cc(Oc2cnc(NC(=O)C(OC3CCOCC3)c3ccc(S(=O)(=O)C4CC4)cc3)s2)ccn1 (stereo not shown) [Example B-49, 4-[2-[[2-(4-cyclopropylsulfonylphenyl)-2-tetrahydropyran-4-yloxy-acetyl]amino]thiazol-5-yl]oxypyridine-2-carboxylic acid]
EC50: 570 nM
Emax [1]: 92%

COc1ccc2nc(NC(=O)C(OC3CCOCC3)c3ccc(S(=O)(=O)N4CCOCC4)cc3)sc2n1 (stereo not shown) [Example A-12, N-(5-methoxythiazolo[5,4-b]pyridin-2-yl)-2-(4-morpholinosulfonylphenyl)-2-tetrahydropyran-4-yloxy-acetamide]
EC50: 660 nM
Emax [1]: 88%

O=C(O)c1ccc(Oc2cnc(NC(=O)C(OC3CCOCC3)c3ccc(S(=O)(=O)C4CC4)cc3)s2)cc1Cl (stereo not shown) [Example B-20, 2-chloro-4-[2-[[2-(4-cyclopropylsulfonylphenyl)-2-tetrahydropyran-4-yloxy-acetyl]amino]thiazol-5-yl]oxy-benzoic acid]
EC50: 590 nM
Emax [1]: 94%

Cc1cc(Oc2cnc(NC(=O)C(OC3CCOCC3)c3ccc(S(=O)(=O)C4CC4)cc3)s2)ccc1C(=O)O (single isomer, unassigned; (-)) [Example G1B, (−)4-[2-[[2-(4-cyclopropylsulfonylphenyl)-2-tetrahydropyran-4-yloxy-acetyl]amino]thiazol-5-yl]oxy-2-methyl-benzoic acid]
EC50: 330 nM
% Emax (with respect to % ΔS0.5) [1]: 92%

O=C(O)c1cncc(Oc2cnc(NC(=O)C(OC3CCOCC3)c3ccc(S(=O)(=O)C4CC4)cc3)s2)c1 (single isomer, unassigned; (+)) [Example G22A, (+)5-[2-[[2-(4-cyclopropylsulfonylphenyl)-2-tetrahydropyran-4-yloxy-acetyl]amino]thiazol-5-yl]oxypyridine-3-carboxylic acid]
EC50: 290 nM
Emax [1]: 95%

O=C(O)Cc1nc(NC(=O)C(OC2CCOCC2)c2ccc(S(=O)(=O)N3CCCCC3)cc2)sc1Cl (stereo not shown) [Example B-12, 2-[5-chloro-2-[[2-[4-(1-piperidylsulfonyl)phenyl]-2-tetrahydropyran-4-yloxy-acetyl]amino]thiazol-4-yl]acetic acid]
EC50: 1120 nM
Emax [1]: 90%

O=C(O)Cc1nc(NC(=O)C(OC2CCOCC2)c2ccc(S(=O)(=O)N3CCCCC3)cc2)sc1Cl (single isomer, unassigned; (-)) [Example G3B, (−)2-[5-chloro-2-[[2-[4-(1-piperidylsulfonyl)phenyl]-2-tetrahydropyran-4-yloxy-acetyl]amino]thiazol-4-yl]acetic acid]
EC50: 420 nM
Emax [1]: 94%

Cc1cc(Oc2cnc(NC(=O)C(Oc3ccc(F)cc3F)c3ccc(S(=O)(=O)C4CC4)cc3)s2)ccc1C(=O)O (stereo not shown) [Example B-9, 4-[2-[[2-(4-cyclopropylsulfonylphenyl)-2-(2,4-difluorophenoxy)acetyl]amino]thiazol-5-yl]oxy-2-methyl-benzoic acid]
EC50: 93 nM
Emax [1]: 89%

O=C(O)c1cnn(-c2cnc(NC(=O)C(OC3CCOCC3)c3ccc(S(=O)(=O)C4CC4)cc3)s2)c1 (single isomer, unassigned; (+)) [Example G12A, (+)1-[2-[[2-(4-cyclopropylsulfonylphenyl)-2-tetrahydropyran-4-yloxy-acetyl]amino]thiazol-5-yl]pyrazole-4-carboxylic acid]
EC50: 300 nM
Emax [1]: 90%

CCOC(=O)c1cccc(Oc2cnc(NC(=O)C(OC3CCOCC3)c3ccc(S(=O)(=O)C4CC4)cc3)s2)c1 (single isomer, unassigned; (+)) [Example G19A, (+)ethyl 3-[2-[[2-(4-cyclopropylsulfonylphenyl)-2-tetrahydropyran-4-yloxy-acetyl]amino]thiazol-5-yl]oxybenzoate]
EC50: 100 nM
Emax [1]: 95%

O=C(O)C1CCc2nc(NC(=O)C(OC3CCOCC3)c3ccc(S(=O)(=O)C4CC4)cc3)sc2C1 (stereo not shown) [Example B-4, 2-[[2-(4-cyclopropylsulfonylphenyl)-2-tetrahydropyran-4-yloxy-acetyl]amino]-4,5,6,7-tetrahydro-1,3-benzothiazole-6-carboxylic acid]
EC50: 3700 nM
Emax [1]: 83%

O=C(O)c1cc(-c2ccc(Oc3cnc(NC(=O)C(OC4CCOCC4)c4ccc(S(=O)(=O)C5CC5)cc4)s3)cc2)no1 (stereo not shown) [Example B-26, 3-[4-[2-[[2-(4-cyclopropylsulfonylphenyl)-2-tetrahydropyran-4-yloxy-acetyl]amino]thiazol-5-yl]oxyphenyl]isoxazole-5-carboxylic acid]
EC50: 220 nM
Emax [1]: 92%

O=C(Nc1nccs1)C(OC1CCOCC1)c1ccc(S(=O)(=O)C2CC2)cc1 (stereo not shown) [Example A-1, 2-(4-Cyclopropylsulfonylphenyl)-2-tetrahydropyran-4-yloxy-N-thiazol-2-yl-acetamide]
EC50: 1400 nM
Emax [1]: 89%

O=C(O)c1ccc(NC(=O)C(Oc2ccc(Cl)cc2)c2ccc(S(=O)(=O)C3CC3)cc2)nc1 (stereo not shown) [Example B-58, 6-[[2-(4-chlorophenoxy)-2-(4-cyclopropylsulfonylphenyl)acetyl]amino]pyridine-3-carboxylic acid]
EC50: 740 nM
Emax [1]: 89%

CN1CCC(OC(C(=O)Nc2ncc(F)s2)c2ccc(S(=O)(=O)C3CC3)cc2)CC1 (stereo not shown) [Example A-32, 2-(4-Cyclopropylsulfonylphenyl)-N-(5-fluorothiazol-2-yl)-2-[(1-methyl-4-piperidyl)oxy]acetamide]
EC50: > 10000 nM

O=C(O)c1cc(Oc2cnc(NC(=O)C(OC3CCOCC3)c3ccc(S(=O)(=O)C4CC4)cc3)s2)ccc1Cl (stereo not shown) [Example B-23, 2-chloro-5-[2-[[2-(4-cyclopropylsulfonylphenyl)-2-tetrahydropyran-4-yloxy-acetyl]amino]thiazol-5-yl]oxy-benzoic acid]
EC50: 480 nM
Emax [1]: 94%

CC(C)(C(=O)O)c1ccc(Oc2cnc(NC(=O)C(OC3CCOCC3)c3ccc(S(=O)(=O)C4CC4)cc3)s2)cc1 (single isomer, unassigned; (+)) [Example G5A, (+)2-[4-[2-[[2-(4-cyclopropylsulfonylphenyl)-2-tetrahydropyran-4-yloxy-acetyl]amino]thiazol-5-yl]oxyphenyl]-2-methyl-propanoic acid]
EC50: 94 nM
Emax [1]: 91%

O=C(Nc1ncc(Oc2cccc(CO)c2)s1)C(OC1CCOCC1)c1ccc(S(=O)(=O)C2CC2)cc1 (stereo not shown) [Example D3, 2-(4-cyclopropylsulfonylphenyl)-N-[5-[3-(hydroxymethyl)phenoxy]thiazol-2-yl]-2-tetrahydropyran-4-yloxy-acetamide]
EC50: 140 nM
Emax [1]: 92%

— patent US9340506B2, “Acetamide derivatives as glucokinase activators, their process and medicinal applications” (ADVINUS THERAPEUTICS LIMITED, priority 2007, dated 2016)
